Results on 23 compounds are retold here after patent US9963444B2, “N-acylethanolamine hydrolyzing acid amidase (NAAA) inhibitors and their use thereof” (Northeastern University, priority 2014, dated 2018).

A word on the IC50: it is the concentration that inhibits the measured activity by half.

SMILES strings stand for the structures.

Chain of hNAAA (Q02083 29-125): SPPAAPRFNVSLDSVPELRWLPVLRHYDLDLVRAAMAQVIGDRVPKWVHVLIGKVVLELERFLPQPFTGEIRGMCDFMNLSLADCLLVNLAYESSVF
Chain of hNAAA (Q02083 126-359): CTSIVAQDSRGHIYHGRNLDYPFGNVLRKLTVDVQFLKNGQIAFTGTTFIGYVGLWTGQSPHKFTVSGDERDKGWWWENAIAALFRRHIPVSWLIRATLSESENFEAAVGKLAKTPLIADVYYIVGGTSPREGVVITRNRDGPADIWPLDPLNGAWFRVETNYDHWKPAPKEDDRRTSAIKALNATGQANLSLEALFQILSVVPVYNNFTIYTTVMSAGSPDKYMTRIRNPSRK

One assay has as its target hNAAA (Homo sapiens (Human), UniProt Q02083). In words: Fluorescence-based NAAA inhibition assay with fluorogenic substrate PAMCA.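 Note: compound preincubated 15 min at room temperature with hNAAA, then PAMCA added at 5 µM, reacted 120 min at 37 °C, AMC release read by fluorescence (ex 360, em 460 nm).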
Conditions: not given
The compound `COc1cccc(-c2ccc(CO[C@H]3C[C@@H](N=C=S)C3)cc2)c1` [Example 35, 4′-(((1S,3S)-3-isothiocyanatocyclobutoxy)methyl)-3-methoxy-1,1′-biphenyl] registered an IC50 of 0.01 to 0.1 µM.

For the compound `S=C=NCCCCCN1CCC(Cc2ccccc2)CC1` [Example 27, 4-Benzyl-1-(5-isothiocyanatopentyl)piperidine], the IC50 fell in the range of 0.01 to 0.1 µM.

With `COc1ncccc1-c1cc(Oc2ccccc2)ccc1COC1CN(C#N)C1` [Example 91, 3-((2-(2-Methoxypyridin-3-yl)-4-phenoxybenzyl)oxy)azetidine-1-carbonitrile], the IC50 lay in the range of 0.01 to 0.1 µM.

The compound `COc1cccc(-c2ccc(COC3(C)CN(C#N)C3)cc2)c1` [Example 95, 3-((3′-Methoxy-[1,1′-biphenyl]-4-yl)methoxy)-3-methylazetidine-1-carbonitrile] gave an IC50 of 0.01 to 0.1 µM.

Compound `COc1cccc(-c2ccc(COC3(c4ccccc4)CN(C#N)C3)cc2)c1` [Example 96, 3-((3′-Methoxy-[1,1′-biphenyl]-4-yl)methoxy)-3-phenylazetidine-1-carbonitrile] had an IC50 of 0.01 to 0.1 µM.

`COc1ccc(OC)c(-c2ccc(COC3CN(C#N)C3)cc2)c1` [Example 68, 3-((2′,5′-Dimethoxy-[1,1′-biphenyl]-4-yl)methoxy)azetidine-1-carbonitrile] showed a half-maximal inhibitory concentration (IC50) of 0.01 to 0.1 µM.

`Fc1cc(-c2ccc3c(c2)OCO3)ccc1CO[C@H]1C[C@@H](N=C=S)C1` [Example 39, 5-(3-Fluoro-4-(((1S,3S)-3-isothiocyanatocyclobutoxy)methyl)phenyl)benzo[d][1,3]dioxole]: the IC50 fell in the range of 0.01 to 0.1 µM.

The compound `COc1cccc(-c2ccc(C3(COC4CN(C#N)C4)CC3)cc2)c1` [Example 82, 3-((1-(3′-Methoxy-[1,1′-biphenyl]-4-yl)cyclopropyl)methoxy)azetidine-1-carbonitrile] yielded an IC50 of 0.01 to 0.1 µM.

Take `N#Cc1ncc(OCCCCCCc2ccccc2)cn1` [Example 115, 5-((6-phenylhexyl)oxy)pyrimidine-2-carbonitrile]: the IC50 fell in the range of 0.11 to 1 µM.

On to `N#Cc1ccccc1-c1cc(Oc2ccccc2)ccc1COC1CN(C#N)C1` [Example 93, 3-((2′-Cyano-5-phenoxy-[1,1′-biphenyl]-2-yl)methoxy)azetidine-1-carbonitrile], for which the IC50 fell in the range of 0.01 to 0.1 µM.

Compound `COc1cccc(-c2ccc(COC3CN(C#N)C3)c(F)c2)c1` [Example 78, 3-((3-Fluoro-3′-methoxy-[1,1′-biphenyl]-4-yl)methoxy)azetidine-1-carbonitrile] registered an IC50 of 0.01 to 0.1 µM.

With `S=C=NCCCOCc1cccc(-c2ccccc2)c1` [Example 24, 3-((3-Isothiocyanatopropoxy)methyl)-1,1′-biphenyl], the IC50 is 0.01 to 0.1 µM.

`COc1ccc(-c2ccc(COC3CN(C#N)C3)cc2)c(OC)c1` [Example 65, 3-((2′,4′-Dimethoxy-[1,1′-biphenyl]-4-yl)methoxy)azetidine-1-carbonitrile]: the IC50 was 0.01 to 0.1 µM.

Staying with this assay, now noted: read-out: NAAA Inhibition IC50 μM; purified hNAAA, PAMCA 5 μM, pH 4.5.
Consider `N#C[C@H]1C[C@H](OCc2ccc(-c3ccccc3)cc2)C1` [Example 107, (1R,3R)-3-([1,1′-Biphenyl]-4-ylmethoxy)cyclobutane-1-carbonitrile], for which the 50% inhibitory concentration (IC50) was greater than 1 µM.

With `S=C=NCCN1CCC(Cc2ccccc2)CC1` [Example 11, 4-Benzyl-1-(2-isothiocyanatoethyl)piperidine], the IC50 is greater than 1 µM.

For the compound `S=C=N[C@H]1C[C@@H](OCc2ccc(Oc3ccccc3)cc2-c2ccccc2)C1` [Example 50, 2-(((1S,3S)-3-Isothiocyanatocyclobutoxy)methyl)-5-phenoxy-1,1′-biphenyl], the IC50 is greater than 1 µM.

On to `Cc1cncc(Oc2ccc(CN=C=S)cc2)n1` [Example 14, 2-(4-(Isothiocyanatomethyl)phenoxy)-6-methylpyrazine], for which the IC50 was greater than 1 µM.

As for `S=C=NCc1ccc(CN2CCOCC2)cc1` [Example 12, 4-(Morpholinomethyl)benzylisothiocyanate], the concentration for half-maximal inhibition (IC50) was greater than 1 µM.

On to `FC(F)(F)c1ccccc1CCCCCCCCCCN=C=S` [Example 16, 1-(10-Isothiocyanatodecyl)-2-(trifluoromethyl)benzene], for which the IC50 is greater than 1 µM.

Take `S=C=NCCCCCCCCc1ccccc1` [Example 3, (8-Isothiocyanatooctyl)benzene]: the IC50 was greater than 1 µM.

For `S=C=NCCCCCCCc1ccc2ccccc2c1` [Example 5, 2-(7-Isothiocyanatoheptyl)naphthalene], the IC50 was greater than 1 µM.

With `COc1cccc(-c2ccc(COC3CN(CC#N)C3)cc2)c1` [Example 109, 2-(3-((3′-Methoxy-[1,1′-biphenyl]-4-yl)methoxy)azetidin-1-yl)acetonitrile], the IC50 is greater than 1 µM.

In the case of `Fc1cc(-c2cccc(OCc3ccccc3)c2)ccc1COC1CC(N=C=S)C1` [Example 48, 3′-(Benzyloxy)-3-fluoro-4-(((1R,3R)-3-isothiocyanatocyclobutoxy)methyl)-1,1′-biphenyl], the IC50 was in the range of 0.01 to 0.1 µM.
